Reference: patent EP4722195A1, “PH-SENSITIVE CATIONIC LIPID AND LIPID NANOPARTICLES” (National University Corporation Hokkaido University, priority 2023, dated 2024)
Blank lines part the entries; values can stand above or below the compound they belong to.

Assays:
[1] = Average particle size and polydispersity index of lipid nanoparticles (dynamic light scattering); assay type: physicochemical
Method: (§1) The average particle size (number average value), ζ-average particle size, and polydispersity index (PdI) of the lipid nanoparticles in PBS(-) (pH 7.4), and the zeta potential in 10 mM HEPES buffer (pH 7.4) were measured using an analyzer "Zetasizer Nano ZS ZEN3600" (manufactured by Malvern) utilizing dynamic light scattering.

[2] = system: liver; experiment: Fluc activity in the liver of mice administered Fluc mRNA-loaded lipid nanoparticles; assay type: in vivo, BALB/c mice; settings: for Fluc activity in the liver at 6, 24, and 48 hours after administration: Example 28, Fig. 7, TxT-5-5A12β versus TxT-5-5A14 nanoparticles, 50/3/47/1.5 (mol%)
Method: Lipid nanoparticles were administered to mice by intravenous injection into the tail vein using a 27G needle. Unless otherwise specified, BALB/c mice (4 to 5 weeks old, female) were used.
First, BALB/c mice (female, 4 weeks old) were intravenously injected with lipid nanoparticles encapsulating Fluc mRNA (Fluc mRNA-loaded lipid nanoparticles) at a dose of 0.1 mg mRNA/kg. Six hours after intravenous injection, the mice were euthanized, each tissue was collected, frozen in liquid nitrogen, and stored at -80°C. The tissues were homogenized in passive lysis buffer (manufactured by Promega) using a bead-type cell disruptor (Micro Smash MS-100R, manufactured by TOMY Seiko). Tissue debris was removed by centrifugation, and the supernatant was collected. Fluc activity in the supernatant was measured using the Luciferase Assay System (E1500, manufactured by Promega) according to the manufacturer's protocol. Luminescence was measured using a luminometer (Luminescencer-PSN, manufactured by ATTO). Protein concentration was determined using a commercially available assay kit (BCA Protein Assay Kit, manufactured by Pierce). Fluc activity was expressed as relative light units (RLU) per mg of protein.
Subsequently, lipid nanoparticles encapsulating Fluc mRNA prepared using TxT-5-5A10, TxT-5-5A12, TxT-5-5A12β, TxT-5-5A14, and TxT-5-5A16 were administered to mice to evaluate luciferase expression levels (Fluc activity) in various tissues. Specifically, each Fluc mRNA-loaded lipid nanoparticle was administered to Balb/c mice at a dose of 0.1 mg mRNA/kg. Six hours after administration, the mice were euthanized, and their organs were collected to measure Fluc activity (RLU/mg protein) (N = 2 or 4).

[3] = Zeta potential of lipid nanoparticles; assay type: physicochemical
Method: as §1

[4] = Apparent pKa of lipid nanoparticles (TNS)
Method: The apparent pKa of the lipid nanoparticles was measured using p-toluenesulfonic acid (TNS). First, TNS (final concentration: 0.75 µM) and lipid nanoparticles (final concentration: 30 µM) were mixed in a buffer (200 mL) adjusted to each pH (pH 3.5 to 9.5). As the buffer, 20 mM citrate buffer, 20 mM sodium phosphate buffer, or 20 mM Tris-HCl buffer containing 130 mM NaCl was used. The fluorescence intensity of the prepared mixture was measured using a fluorescence spectrophotometer (Varioskan Lux, manufactured by Thermo Fisher Scientific) with the settings of λex=321 nm and λem=447 nm. Among the measured values, the highest value and the lowest value were set as 100% and 0% ionization degrees, respectively, and the pH showing a 50% ionization degree was calculated as the apparent pKa. The content ratio (%) of cationically charged pH-sensitive cationic lipid was calculated using the Henderson-Hasselbalch equation.

[5] = Encapsulation rate of lipid nanoparticles (Ribogreen); assay type: physicochemical
Method: The encapsulation rate of the lipid nanoparticles was determined by measuring the amount of encapsulated nucleic acid (mRNA) using Ribogreen (manufactured by Life Technologies), which is an RNA intercalator. The mRNA amount was quantified based on a calibration curve prepared from a series of diluted mRNA solutions at known concentrations.
Specifically, 10 mM HEPES buffer (pH 7.4), 10 w/v% Triton X-100, and Ribogreen were mixed at 978.8 µL, 20 µL, and 1.25 µL per 10 wells, respectively, to obtain a Triton(+) buffer. A Triton(-) buffer was obtained in replacing Triton X-100 with 10 mM HEPES buffer (pH 7.4). 100 µL/well of the sample was added to a black 96-well plate for fluorescence measurement, and 100 µL/well of Triton(+) buffer or Triton(-) buffer was added. After the plate was gently shaken on a shaking incubator (SI-300, manufactured by AS ONE) (700 rpm, 30 seconds), the fluorescence intensity of each well was measured using a microplate reader (VARIOSKAN LUX, manufactured by Thermo Fisher Scientific) (wavelength Ex/Em=500 nm/525 nm), and the nucleic acid encapsulation rate (%) was calculated.

[6] = Table 1, Fluc mRNA-loaded lipid nanoparticles, TxT/DSPC/chol/PEG-DMG=50/15/35/1.5 (mol%)
[7] = Table 3, Fluc mRNA-loaded lipid nanoparticles, TxT/DSPC/chol/PEG-DMG=50/3/47/1.5 (mol%)
[8] = Table 5, EGFP mRNA-loaded lipid nanoparticles, TxT/DSPC/chol/PEG-DMG=50/3/47/1.5 (mol%), total flow rate 3.0 mL/min
[9] = Table 6 (Example 28), Fluc mRNA-loaded lipid nanoparticles, TxT/DSPC/chol/PEG-DMG=50/3/47/1.5 (mol%)
[10] = Table 7, hEPO mRNA-loaded lipid nanoparticles, TxT/DSPC/chol/PEG-DMG=50/3/47/1.5, SM-102/DSPC/chol/PEG-DMG=50/10/40/1.5 (mol%)
[11] = Table 8 (Example 32), lipid nanoparticles for TTR-targeted genome editing, Cas9-mRNA and TTR-gRNA 1:2 (N/P = 6.0), TxT/DSPC/chol/PEG-DMG = 50/3/47/1.5 (mol%)
[12] = Table 1, apparent pKa of Fluc mRNA-loaded lipid nanoparticles, TxT/DSPC/chol/PEG-DMG=50/15/35/1.5 (mol%)
[13] = Table 4, Fluc mRNA-loaded lipid nanoparticles, TxT-5-5A14/DSPC/chol/PEG-DMG=50/3/47/1.5, SM-102, ALC-0315 or MC3/DSPC/chol/PEG-DMG=50/10/40/1.5 (mol%)
[14] = Table 9 (Example 33), lipid nanoparticles for TTR-targeted genome editing, Cas9-mRNA and TTR-gRNA 1:2 (N/P = 6.0), TxT-5-5A14/DSPC/chol/PEG-DMG = 50/3/47/1.5 (mol%)
[15] = Table 10 (Example 34), lipid nanoparticles for PCSK9-targeted genome editing, Cas9-mRNA and PCSK9-gRNA 1:2 (N/P = 6.0), TxT-5-5A14/DSPC/chol/PEG-DMG = 50/3/47/1.5 (mol%)

- average particle diameter, comparison among TxT lipids ([1]; Example 32, Table 8, lipid nanoparticles for TTR-targeted genome editing): largest
- Pdl [1, 6]: 0.08
- number average particle size [1, 6]: 82.8 nm
- ζ-average particle size [1, 6]: 111.9 nm
- Pdl [1, 7]: 0.08
- number average particle size [1, 7]: 72.8 nm
- ζ-average particle size [1, 7]: 96.0 nm
- Pdl [1, 8]: 0.05
- number average particle size [1, 8]: 81.9 nm
- ζ-average particle size [1, 8]: 104.0 nm
- Pdl [1, 9]: 0.06
- number average particle size [1, 9]: 71.2 nm
- ζ-average particle size [1, 9]: 92.0 nm
- Pdl [1, 10]: 0.10
- number average particle size [1, 10]: 66.9 nm
- ζ-average particle size [1, 10]: 88.9 nm
- Pdl [1, 11]: 0.02
- number average particle size [1, 11]: 71.3 nm
- ζ-average particle size [1, 11]: 87.8 nm
- ζ-potential [3, 6]: -6.0 mV
- ζ-potential [3, 7]: -5.6 mV
- ζ-potential [3, 8]: -7.8 mV
- ζ-potential [3, 9]: -8.4 mV
- ζ-potential [3, 10]: -3.0 mV
- ζ-potential [3, 11]: -3.8 mV
- pKa [4, 12]: 4.90
- pKa [4, 7]: 6.53
- mRNA concentration [5, 6]: 0.024 µg/µL
- mRNA encapsulation rate [5, 6]: 97.0%
- mRNA concentration [5, 7]: 0.023 µg/µL
- mRNA encapsulation rate [5, 7]: 99.5%
- mRNA concentration [5, 8]: 0.016 µg/µL
- mRNA encapsulation rate [5, 8]: 99.1%
- mRNA concentration [5, 9]: 0.020 µg/µL
- mRNA encapsulation rate [5, 9]: 98.0%
- mRNA concentration [5, 10]: 0.017 µg/µL
- mRNA encapsulation rate [5, 10]: 99.5%
- mRNA concentration [5, 11]: 0.412 µg/µL
- mRNA encapsulation rate [5, 11]: 99.1%
Compound: CCCCCCC(CCCC)CNC(=O)CCCC(=O)OCC(COC(=O)CCCC(=O)NCC(CCCC)CCCCCC)(COC(=O)CCCC(=O)NCC(CCCC)CCCCCC)NC(=O)CCN1CCCCC1 (stereo not drawn) [TxT-5-5A12β, 2-(((5-((2-butyloctyl)amino)-5-oxopentanoyl)oxy)methyl)-2-(3-(piperidin-1-yl)propanamido)propane-1,3-diyl bis(5-((2-butyloctyl)amino)-5-oxopentanoate)]
- Fluc activity in the liver at 6, 24, and 48 hours after administration ([2]; N = 3): comparable levels of gene expression at all time points

- Pdl [1, 6]: 0.11
- number average particle size [1, 6]: 72.4 nm
- ζ-average particle size [1, 6]: 106.2 nm
- Pdl [1, 7]: 0.08
- number average particle size [1, 7]: 78.9 nm
- ζ-average particle size [1, 7]: 101.0 nm
- Pdl [1, 13]: 0.08
- number average particle size [1, 13]: 82.4 nm
- ζ-average particle size [1, 13]: 113.8 nm
- Pdl [1, 8]: 0.06
- number average particle size [1, 8]: 80.9 nm
- ζ-average particle size [1, 8]: 106.0 nm
- Pdl [1, 9]: 0.09
- number average particle size [1, 9]: 79.6 nm
- ζ-average particle size [1, 9]: 107.7 nm
- Pdl [1, 10]: 0.04
- number average particle size [1, 10]: 76.6 nm
- ζ-average particle size [1, 10]: 103.4 nm
- Pdl [1, 11]: 0.05
- number average particle size [1, 11]: 66.4 nm
- ζ-average particle size [1, 11]: 82.2 nm
- Pdl [1, 14]: 0.10
- number average particle size [1, 14]: 67.7 nm
- ζ-average particle size [1, 14]: 91.8 nm
- Pdl [1, 15]: 0.10
- number average particle size [1, 15]: 73.6 nm
- ζ-average particle size [1, 15]: 99.4 nm
- ζ-potential [3, 6]: -3.4 mV
- ζ-potential [3, 7]: -7.5 mV
- ζ-potential [3, 13]: -8.9 mV
- ζ-potential [3, 8]: -13.0 mV
- ζ-potential [3, 9]: -6.4 mV
- ζ-potential [3, 10]: -1.4 mV
- ζ-potential [3, 11]: -5.5 mV
- ζ-potential [3, 14]: -4.0 mV
- ζ-potential [3, 15]: -1.6 mV
- pKa [4, 12]: 4.99
- pKa [4, 7]: 6.46
- pKa [4, 13]: 6.53
- mRNA concentration [5, 6]: 0.025 µg/µL
- mRNA encapsulation rate [5, 6]: 98.8%
- mRNA concentration [5, 7]: 0.022 µg/µL
- mRNA encapsulation rate [5, 7]: 98.6%
- mRNA concentration [5, 13]: 0.022 µg/µL
- mRNA encapsulation rate [5, 13]: 99.4%
- mRNA concentration [5, 8]: 0.023 µg/µL
- mRNA encapsulation rate [5, 8]: 99.0%
- mRNA concentration [5, 9]: 0.021 µg/µL
- mRNA encapsulation rate [5, 9]: 98.2%
- mRNA concentration [5, 10]: 0.022 µg/µL
- mRNA encapsulation rate [5, 10]: 99.3%
- mRNA concentration [5, 11]: 0.467 µg/µL
- mRNA encapsulation rate [5, 11]: 96.5%
- mRNA concentration [5, 14]: 0.037 µg/µL
- mRNA encapsulation rate [5, 14]: 99.1%
- mRNA concentration [5, 15]: 0.311 µg/µL
- mRNA encapsulation rate [5, 15]: 97.1%
Compound: CCCCCCCN(CCCCCCC)C(=O)CCCC(=O)OCC(COC(=O)CCCC(=O)N(CCCCCCC)CCCCCCC)(COC(=O)CCCC(=O)N(CCCCCCC)CCCCCCC)NC(=O)CCN1CCCCC1 [TxT-5-5A14, 2-(((5-(diheptylamino)-5-oxopentanoyl)oxy)methyl)-2-(3-(piperidin-1-yl)propanamido)propane-1,3-diyl bis(5-(diheptylamino)-5-oxopentanoate)]
- Fluc activity (liver), comparison among TxT lipids ([2]; Example 24, Fig. 3A, TxT/DSPC/chol/PEG-DMG=50/3/47/1.5 (mol%), 0.1 mg mRNA/kg, six hours): highest Fluc activity
- Fluc activity in the liver compared to lipid nanoparticles comprising other cationic lipids (SM-102, ALC-0315, MC3) ([2]; Example 25, Fig. 4, TxT-5-5A14 50/3/47/1.5, comparators 50/10/40/1.5 (mol%), 0.1 mg mRNA/kg, six hours, N = 3): significantly higher Fluc activity
- Fluc activity in the liver at 6, 24, and 48 hours after administration ([2]; N = 3): comparable levels of gene expression at all time points
